A value given as a limit tells only on which side of the number the result lay.

One test concerns RCC4. Briefly: XTT IC50 / viability assay, RCC4 cells. In kind it is cell-based, human. The note with it: Homo sapiens, RCC4, 96 h; XTT assay, four days. On the procedure:
(§1) RCC4 parental and RCC4 with VHL-reintroduced (RCC4/VHL), SN12C and SN12C-CSCG-VHL shRNA were maintained in DMEM supplemented with 10% FCS.
(§2) IC50 values for compounds were determined by XTT assay. For 2,3-bis[2-methoxy-4-nitro-5-sulfophenyl]-2H-tetrazolium-5-carboxanilide inner salt (XTT) assays, five thousand cells were plated in 96-well plates. The next day, vehicle or drug was added to each well and incubated for four days. Media was aspirated and phenol red-free medium with 0.3 mg/mL XTT and 2.65 ug/mL N-methyl dibenzopyrazine methyl sulfate was added. This was incubated at 37° C. for 1-2 hours and absorbance was read at 450 nm. IC50 values for each compound were calculated using linear interpolation.
(§3) For 2,3-bis[2-methoxy-4-nitro-5-sulfophenyl]-2H-tetrazolium-5-carboxanilide (XTT) assays, five thousand cells were plated in 96-well plates. The next day, vehicle (DMSO) or drug was added by serial dilution. Four days later, media were aspirated, XTT solution (0.3 mg/ml of XTT (Sigma), 2.65 mg/ml N-methyl dibenxopyrazine methyl sulfate (Simga) in phenol red-free media) was added, and the plates were incubated at 37° C. for 1-2 hours. Metabolism of XTT was quantified by measuring the absorbance at 450 nm. IC50s were calculated using linear interpolation. For clonogenic survival assays, three hundred cells were plated per 60 mm tissue culture dish. The cells were allowed to attach overnight and then treated with vehicle or drug for 14 days. Colonies were fixed and stained with crystal violet (0.1% crystal violet in 95% ethanol). All conditions were measured in triplicate and each experiment was done in duplicate or triplicate. To determine necrosis, cells were treated with drug for a given time point. Media and cells were collected, centrifugated, and resuspended in 0.4% trypan blue (Invitrogen). Live and dead cells were counted on a hematocytometer.
In general terms: Formazan colour is commonly taken as a measure of viable cells.

Another test has as its system RCC4/VHL. Kind of test: XTT IC50 assay, selectivity RCC4 versus RCC4 with VHL-reintroduced. In kind it is cell-based, human. The note with it: selectivity ratio of XTT IC50 values, RCC4 vs RCC4/VHL. On the procedure: as §1, §2, §3

By IC50 is commonly meant the concentration needed to halve the response being measured. A higher IC50 goes with a need for much substance. The compound `Nc1ccc(S(=O)(=O)NCc2ccc(C(=O)Nc3cccnc3)cc2)cc1` [Example 32, 4-((4-Aminophenylsulfonamido)methyl)-N-(pyridin-3-yl)benzamide] returned an IC50 with RCC4 of 1 to 20 µM. In addition, the “Ratio (RCC4:RCC/VHL)” value in the test with RCC4/VHL is on record as “b (“b” reflects from 10 to 100)”.

Take `COc1ccc(S(=O)(=O)NCc2ccc(C(=O)Nc3cccnc3)cc2)cc1C(C)(C)C` [Example 62, 4-((3-tert-Butyl-4-methoxyphenylsulfonamido)methyl)-N-(pyridin-3-yl)benzamide]: the IC50 in the test with RCC4 was < 1 µM. In addition, the “Ratio (RCC4:RCC/VHL)” value in the test on RCC4/VHL is on record as “c (“c” reflects a ratio of >100)”.

As to `CCCN(CCC)Cc1ccc(S(=O)(=O)NCc2ccc(C(=O)Nc3cccnc3)cc2)cc1` [Example 79, 4-{[({4-[(Dipropylamino)methyl]phenyl}sulfonyl)amino]methyl}-N-(3-pyridinyl)benzamide], the IC50 in the test on RCC4 was < 1 µM. Moreover, in the test on RCC4/VHL, the “Ratio (RCC4:RCC/VHL)” value is “b (“b” reflects from 10 to 100)”.

Regarding `CCN(Cc1ccc(C(=O)Nc2cccnc2)cc1)S(=O)(=O)c1ccc(C(C)(C)C)cc1` [Example 139, 4-{[[(4-tert-Butylphenyl)sulfonyl](ethyl)amino]methyl}-N-(3-pyridinyl)benzamide], in the test with RCC4, the IC50 was > 20 µM. The “Ratio (RCC4:RCC/VHL)” value in the test on RCC4/VHL was “a (“a” reflects a ratio of RCC4/RCC-VHL+ ranging from 1 to 10)”.

Consider `Cn1ccc(-c2cccc(S(=O)(=O)NCc3ccc(C(=O)Nc4cccnc4)cc3)c2)n1` [Example 28, 4-[({[3-(1-Methyl-1H-pyrazol-3-yl)phenyl]sulfonyl}amino)methyl]-N-(3-pyridinyl)benzamide], for which, in the test with RCC4, the IC50 was < 1 µM. Further, the “Ratio (RCC4:RCC/VHL)” value in the test on RCC4/VHL is recorded as “c (“c” reflects a ratio of >100)”.

As to `CC(=O)c1ccc(S(=O)(=O)NCc2ccc(C(=O)Nc3cccnc3)cc2)cc1` [Example 48, 4-((4-Acetylphenylsulfonamido)methyl)-N-(pyridin-3-yl)benzamide], the IC50 in the test on RCC4 was < 1 µM. Besides, in the test with RCC4/VHL, the “Ratio (RCC4:RCC/VHL)” value is listed as “b (“b” reflects from 10 to 100)”.

On to `N#Cc1ccc(S(=O)(=O)NCc2ccc(C(=O)Nc3cccnc3)cc2)cc1` [Example 50, 4-((4-Cyanophenylsulfonamido)methyl)-N-(pyridin-3-yl)benzamide], for which the IC50 in the test with RCC4 was in the range of 1 to 20 µM. Besides, the “Ratio (RCC4:RCC/VHL)” value in the test with RCC4/VHL is “a (“a” reflects a ratio of RCC4/RCC-VHL+ ranging from 1 to 10)”.

As to `Cc1ccc(S(=O)(=O)NCc2ccc(C(=O)Nc3cccnc3)cc2)cc1F` [Example 67, 4-((3-Fluoro-4-methylphenylsulfonamido)methyl)-N-(pyridin-3-yl)benzamide], in the test on RCC4, the IC50 was < 1 µM. In addition, the “Ratio (RCC4:RCC/VHL)” value in the test on RCC4/VHL is reported as “c (“c” reflects a ratio of >100)”.

`CC(=O)Nc1ccc(S(=O)(=O)NCc2ccc(C(=O)Nc3cccnc3)cc2)cc1` [Example 42, 4-((4-Acetamidophenylsulfonamido)methyl)-N-(pyridin-3-yl)benzamide] registered an IC50 in the test on RCC4 of 1 to 20 µM. Besides, in the test on RCC4/VHL, the “Ratio (RCC4:RCC/VHL)” value is “a (“a” reflects a ratio of RCC4/RCC-VHL+ ranging from 1 to 10)”.

As for `CN(C(=O)c1ccc(CNS(=O)(=O)c2ccc(C(C)(C)C)cc2)cc1)c1cccnc1` [Example 89, 4-[(4-tert-Butylphenylsulfonamido)methyl]-N-methyl-N-(3-pyridinyl)benzamide], the IC50 in the test with RCC4 fell in the range of 1 to 20 µM. Besides, in the test on RCC4/VHL, the “Ratio (RCC4:RCC/VHL)” value is given as “a (“a” reflects a ratio of RCC4/RCC-VHL+ ranging from 1 to 10)”.

For the compound `CC(C)(C)c1ccc(CNCc2ccc(C(=O)Nc3cccnc3)cc2)cc1` [Compound B, reference compound], the IC50 in the test on RCC4 was in the range of 1 to 20 µM. For the same compound, the “Ratio (RCC4:RCC/VHL)” value with RCC4/VHL is “a (“a” reflects a ratio of RCC4/RCC-VHL+ ranging from 1 to 10)”.

Turning to `CN1CCN(c2cccc(S(=O)(=O)NCc3ccc(C(=O)Nc4cccnc4)cc3)c2)CC1` [Example 132, 4-[({[3-(4-Methyl-1-piperazinyl)phenyl]sulfonyl}amino)methyl]-N-(3-pyridinyl)benzamide], the IC50 in the test on RCC4 is < 1 µM. Further, in the test with RCC4/VHL, the “Ratio (RCC4:RCC/VHL)” value is recorded as “b (“b” reflects from 10 to 100)”.

For the compound `O=C(Nc1cccnc1)c1ccc(CNS(=O)(=O)c2ccc(Cc3ccccc3)cc2)cc1` [Example 135, 4-({[(4-Benzylphenyl)sulfonyl]amino}methyl)-N-(3-pyridinyl)benzamide], the IC50 with RCC4 was < 1 µM. In addition, the “Ratio (RCC4:RCC/VHL)” value in the test on RCC4/VHL is “b (“b” reflects from 10 to 100)”.

In turn, `O=C(Nc1cccnc1)c1ccc(CNS(=O)(=O)c2ccc(-c3ccccc3)cc2)cc1` [Example 54, 4-((Biphenyl-4-ylsulfonamido)methyl)-N-(pyridin-3-yl)benzamide] came in with an IC50 in the test with RCC4 of 1 to 20 µM. Also, in the test with RCC4/VHL, the “Ratio (RCC4:RCC/VHL)” value is “b (“b” reflects from 10 to 100)”.

With `COc1ccc(-c2ccc(S(=O)(=O)NCc3ccc(C(=O)Nc4cccnc4)cc3)cc2)cc1` [Example 52, 4-({[(4′-Methoxy[1,1′-biphenyl]-4-yl)sulfonyl]amino}methyl)-N-(3-pyridinyl)benzamide], in the test with RCC4, the IC50 is 1 to 20 µM. Moreover, in the test with RCC4/VHL, the “Ratio (RCC4:RCC/VHL)” value is given as “b (“b” reflects from 10 to 100)”.

With `O=C(Nc1cccnc1)c1ccc(CNS(=O)(=O)c2ccc(C#CCN3CCOCC3)cc2)cc1` [Example 136, 4-{[({4-[3-(4-Morpholinyl)-1-propynyl]phenyl}sulfonyl)amino]methyl}-N-(3-pyridinyl)benzamide], the IC50 with RCC4 was < 1 µM. In addition, the “Ratio (RCC4:RCC/VHL)” value with RCC4/VHL was “b (“b” reflects from 10 to 100)”.

In the test on RCC4, `O=C(Nc1cccnc1)c1ccc(CNS(=O)(=O)c2ccc(Cl)cc2)cc1` [Example 44, 4-((4-Chlorophenylsulfonamido)methyl)-N-(pyridin-3-yl)benzamide] gave an IC50 of 1 to 20 µM. Also, the “Ratio (RCC4:RCC/VHL)” value in the test on RCC4/VHL is listed as “b (“b” reflects from 10 to 100)”.

Consider `Cc1cc(C)cc(S(=O)(=O)NCc2ccc(C(=O)Nc3cccnc3)cc2)c1` [Example 66, 4-((3,5-Dimethylphenylsulfonamido)methyl)-N-(pyridin-3-yl)benzamide], for which, in the test with RCC4, the IC50 was < 1 µM. In the test on RCC4/VHL, the “Ratio (RCC4:RCC/VHL)” value is given as “c (“c” reflects a ratio of >100)”.

The compound `Cc1nnc(-c2cccc(S(=O)(=O)NCc3ccc(C(=O)Nc4cccnc4)cc3)c2)o1` [Example 29, 4-[({[3-(5-Methyl-1,3,4-oxadiazol-2-yl)phenyl]sulfonyl}amino)methyl]-N-(3-pyridinyl)benzamide] showed a half-inhibitory concentration (IC50) in the test with RCC4 of 1 to 20 µM. The “Ratio (RCC4:RCC/VHL)” value with RCC4/VHL is “b (“b” reflects from 10 to 100)”.

In the case of `CN(C)c1cccc2c(S(=O)(=O)NCc3ccc(C(=O)Nc4cccnc4)cc3)cccc12` [Example 73, 4-((5-(Dimethylamino)naphthalene-1-sulfonamido)methyl)-N-(pyridin-3-yl)benzamide], in the test on RCC4, the IC50 is < 1 µM. Besides, the “Ratio (RCC4:RCC/VHL)” value in the test on RCC4/VHL is given as “c (“c” reflects a ratio of >100)”.

Regarding `O=C(Nc1cccnc1)c1ccc(CNS(=O)(=O)c2ccc3c(c2)CCC3)cc1` [Example 74, 4-((2,3-Dihydro-1H-indene-5-sulfonamido)methyl)-N-(pyridin-3-yl)benzamide], in the test on RCC4, the IC50 was < 1 µM. Further, the “Ratio (RCC4:RCC/VHL)” value in the test with RCC4/VHL is on record as “c (“c” reflects a ratio of >100)”.

For the compound `O=C(Nc1cccnc1)c1ccc(CNS(=O)(=O)c2cccc(Cl)c2)cc1` [Example 21, 4-((3-Chlorophenylsulfonamido)methyl)-N-(pyridin-3-yl)benzamide], the IC50 in the test on RCC4 is < 1 µM. The “Ratio (RCC4:RCC/VHL)” value with RCC4/VHL is given as “b (“b” reflects from 10 to 100)”.

Regarding `O=C(Nc1cccnc1)c1ccc(CNS(=O)(=O)c2cccc(Br)c2)cc1` [Example 22, 4-((3-Bromophenylsulfonamido)methyl)-N-(pyridin-3-yl)benzamide], in the test on RCC4, the IC50 was < 1 µM. For the same compound, the “Ratio (RCC4:RCC/VHL)” value with RCC4/VHL is on record as “b (“b” reflects from 10 to 100)”.

Regarding `CN(Cc1ccc(C(=O)Nc2cccnc2)cc1)S(=O)(=O)c1ccc(C(C)(C)C)cc1` [Example 138, 4-{[[(4-tert-Butylphenyl)sulfonyl](methyl)amino]methyl}-N-(3-pyridinyl)benzamide], in the test on RCC4, the IC50 fell in the range of 1 to 20 µM. In addition, the “Ratio (RCC4:RCC/VHL)” value in the test with RCC4/VHL is recorded as “a (“a” reflects a ratio of RCC4/RCC-VHL+ ranging from 1 to 10)”.

As for `O=C(Nc1cccnc1)c1ccc(CNS(=O)(=O)c2cccc(-c3ncccn3)c2)cc1` [Example 27, 4-[({[3-(2-Pyrimidinyl)phenyl]sulfonyl}amino)methyl]-N-(3-pyridinyl)benzamide], the IC50 with RCC4 was < 1 µM. For the same compound, the “Ratio (RCC4:RCC/VHL)” value with RCC4/VHL is listed as “b (“b” reflects from 10 to 100)”.

Consider `CN(C)Cc1ccc(S(=O)(=O)NCc2ccc(C(=O)Nc3cccnc3)cc2)cc1` [Example 77, 4-[({4-[(Dimethylamino)methyl]phenyl}sulfonyl)amino]methyl-N-(3-pyridinyl)benzamide], for which the IC50 in the test with RCC4 was < 1 µM. For the same compound, the “Ratio (RCC4:RCC/VHL)” value with RCC4/VHL is “b (“b” reflects from 10 to 100)”.

Regarding `Cc1ccc(-c2ccc(S(=O)(=O)NCc3ccc(C(=O)Nc4cccnc4)cc3)cc2)cc1` [Example 53, 4-({[(4′-Methyl[1,1′-biphenyl]-4-yl)sulfonyl]amino}methyl)-N-(3-pyridinyl)benzamide], the IC50 in the test on RCC4 lay within 1 to 20 µM. Further, in the test on RCC4/VHL, the “Ratio (RCC4:RCC/VHL)” value is listed as “a (“a” reflects a ratio of RCC4/RCC-VHL+ ranging from 1 to 10)”.

Values taken from US20120225862A1, “HETEROARYL BENZAMIDES, COMPOSITIONS AND METHODS OF USE” (AUCKLAND UNIVSERVICES LIMITED, priority 2009, published 2012).
